Test results: patent publication US20250115926A1, “DEREGULATED DHS AND TYRA ENZYMES OF GRASSES ENABLE EFFICIENT PRODUCTION OF BOTH TYROSINE AND PHENYLALANINE” (Wisconsin Alumni Research Foundation, priority 2023, published 2025)
pIC50: −log10 of the molar value.

Tests used:
[1] = DHS activity with combinations of effectors; format: biochemical; conditions: 0.15 mM each effector (FIG. 19)
Description: DHS effector molecules can have synergistic effects when combined in vitro^51. To explore this possibility, we tested the impact of different combinations of tryptophan, tyrosine, arogenate and chorismate, at 0.15 mM each, on the activity of Brachypodium DHS enzymes.

[2] = system: Nicotiana benthamiana leaves; assay: Transient expression of Brachypodium DHS in Nicotiana benthamiana leaves (AtRbcS3B promoter), UHPLC-MS; format: in vivo; conditions: three days after transient expression
Description: Agrobacterium tumefaciens strain GV3101 transformed with the plant expression constructs were grown at 28° C. for 24 to 36 hours in 10 mL of LB liquid media containing the corresponding antibiotics. The saturated cultures were spun down at 3,000 g for 5 minutes at room temperature and washed twice with 3 mL of induction media (IM; 10 mM MES [2-(N-morpholino) ethanesulfonic acid] buffer pH 5.6, 0.5% glucose, 2 mM NaH2PO4, 20 mM NH4Cl, 1 mM MgSO4, 2 mM KCl, 0.1 mM CaCl2), 0.01 mM FeSO4, and 0.2 mM acetosyringone). After washing, bacteria cultures were incubated in IM for 2 to 3 hours at room temperature in the dark, pelleted at 3000 g for 5 minutes, and resuspended into 3 mL of 10 mM MES buffer pH 5.6 with 0.2 mM acetosyringone. OD600nm was adjusted to a final density of 0.25 units for pAGM4673::TyrA (FIG. 3F) and pICH47822::DHS (FIG. 5A) infiltration, or 0.5 units for pAGM4673::TyrA-DHS co-expression constructs (FIG. 5B) using 10 mM MES buffer pH 5.6 with 0.2 mM acetosyringone. For infiltration of pICH47822::DHS constructs, the Agrobacterium suspensions were adjusted to OD600nm=0.5 and mixed with an equal volume of a suspension of an Agrobacterium clone transformed with pICH4780::p19 under control of the Arabidopsis ubiquitin ligase promoter adjusted to OD600nm=0.5, resulting in a final mixture of 0.25 OD600nm units for each construct. […] Nicotiana benthamiana plants of around 4-weeks-old were infiltrated close to the end of the light period into four different spots per plant, distributed into two leaves at two infiltrations per leaf, with each individual spot corresponding with a different construct/treatment. In total, each construct was infiltrated as 5 or 6 independent replicates into different plants following a randomized pattern. Samples consisting of the infiltrated leaf limbs, without the main veins, were harvested at ˜72 hours post infiltration and subjected to HPLC or UHPLC-MS analysis (see details below).
Around 30-40 mg of pulverized frozen plant tissue were resuspended into 400 μL of chloroform:methanol (1:2) for ˜1 hour with regular vortexing, followed by centrifugation at 20,000 g for 5 minutes at room temperature. The whole supernatant was transferred to a fresh tube, mixed with 125 μL of chloroform, 300 μL of water, and spun down at 15,000 g for 5 minutes for phase separation. The upper, aqueous phase was recovered and dried down for 4 hours to overnight in a speed-vac at 40° C. The dried pellets were resuspended into 100 μL of methanol 80%, spun down at 20,000 g for 5 minutes, and the supernatant transferred to vials for injection. All reagents used for the extraction were UHPLC-MS grade.
Aromatic amino acids and shikimate were detected using a Vanquish Horizon Binary UHPLC (Thermo Scientific) coupled to a Q Exactive mass spectrometer (Thermo Scientific). Two microliters of the sample were analyzed using a InfinityLab Poroshell 120 HILIC-Z column (150×2.1 mm, 2.7-μm particle size; Agilent) in a gradient of 5 mM ammonium acetate/0.2% acetic acid buffer in water (solvent A) and 5 mM ammonium acetate/0.2% acetic acid buffer in 95% acetonitrile (solvent B) at a flow rate of 0.45 mL/min and column temperature of 40° C. The phase B gradient was: 0-2 min, 94%; 2-9 min, 94-88%; 9-19 min, 88-71%; 19-20 min, 71-20%, 20-21.5 min, 20%; 21.5-22 min, 20-94%; 22-25 min, 94%. All chemicals used to prepare the mobile phases were LC-MS grade. Full MS spectra were recorded between 2 and 19 minutes using full scan in negative mode, under the following parameters: sheath gas flow rate, 55; auxiliary gas flow rate, 20; sweep gas flow rate, 2; spray voltage, 3 kV; capillary temperature, 400° C.; S-lens RF level, 50; resolution, 70,000; AGC target 3×10^6, maximum scan time 100 ms; scan range 70-1050 m/z. Spectral data were integrated manually using Xcalibur 3.0. For ^13C labeled plant samples, ^13C-isotopologues were detected based on a mass increase of 1.00335 atomic mass units for each ^13C atom. […]

[3] = target: Brachypodium distachyon BdDHS1a, SEQ ID NO: 1, recombinant (Brachypodium distachyon, UniProt I1GSB3); assay: DHS activity: kinetics and effector inhibition
Chain of Brachypodium distachyon BdDHS1a, SEQ ID NO: 1, recombinant (I1GSB3 46-537): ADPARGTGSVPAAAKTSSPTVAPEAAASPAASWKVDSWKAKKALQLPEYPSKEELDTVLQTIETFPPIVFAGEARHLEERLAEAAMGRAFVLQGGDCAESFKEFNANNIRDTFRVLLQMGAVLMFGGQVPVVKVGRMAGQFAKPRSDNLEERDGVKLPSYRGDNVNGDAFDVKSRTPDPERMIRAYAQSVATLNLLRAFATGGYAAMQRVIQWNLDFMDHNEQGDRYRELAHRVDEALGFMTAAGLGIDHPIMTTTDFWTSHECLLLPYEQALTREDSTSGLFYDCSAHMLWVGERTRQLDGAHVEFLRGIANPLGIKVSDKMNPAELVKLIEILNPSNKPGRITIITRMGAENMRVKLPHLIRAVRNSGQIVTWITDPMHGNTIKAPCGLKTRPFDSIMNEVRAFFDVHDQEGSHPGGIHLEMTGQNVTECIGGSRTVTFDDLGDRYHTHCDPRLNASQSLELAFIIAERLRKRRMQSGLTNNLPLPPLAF
Text: (§1) To examine their functional properties, the recombinant DHS enzymes of Brachypodium were produced and characterized in vitro.
(§2) As recent studies have shown that plant DHS enzymes are feedback-inhibited by multiple effector molecules^15, 16, we tested the effect of AAAs and another 14 related metabolites, including various intermediates of the shikimate pathway and the pathways downstream of AAAs, on Brachypodium DHS enzymes.
(§3) The DHS assay for UHPLC-MS quantification was set up using the same settings as described in the previous paragraph for the UV-based DHS assay, which guaranteed at least 10 minutes of reaction linearity. After a 10-minute incubation, 20 μL of the reactions (out of a total volume of 50 μL) were mixed into 80 μL of methanol, vortexed and transferred to vials for injection. Analysis of DAHP by UHPLC-MS was conducted using the same chromatographic settings as described for the UHPLC-MS analysis of soluble metabolites and compared with an authentic DAHP standard (Sta. Cruz biotechnology, cat. no. sc-216432).

[4] = target: Brachypodium distachyon BdDHS1b, SEQ ID NO: 3, recombinant (Brachypodium distachyon, UniProt I1H4W3); assay: DHS activity: kinetics and effector inhibition; format: biochemical
Chain of Brachypodium distachyon BdDHS1b, SEQ ID NO: 3, recombinant (I1H4W3 37-542): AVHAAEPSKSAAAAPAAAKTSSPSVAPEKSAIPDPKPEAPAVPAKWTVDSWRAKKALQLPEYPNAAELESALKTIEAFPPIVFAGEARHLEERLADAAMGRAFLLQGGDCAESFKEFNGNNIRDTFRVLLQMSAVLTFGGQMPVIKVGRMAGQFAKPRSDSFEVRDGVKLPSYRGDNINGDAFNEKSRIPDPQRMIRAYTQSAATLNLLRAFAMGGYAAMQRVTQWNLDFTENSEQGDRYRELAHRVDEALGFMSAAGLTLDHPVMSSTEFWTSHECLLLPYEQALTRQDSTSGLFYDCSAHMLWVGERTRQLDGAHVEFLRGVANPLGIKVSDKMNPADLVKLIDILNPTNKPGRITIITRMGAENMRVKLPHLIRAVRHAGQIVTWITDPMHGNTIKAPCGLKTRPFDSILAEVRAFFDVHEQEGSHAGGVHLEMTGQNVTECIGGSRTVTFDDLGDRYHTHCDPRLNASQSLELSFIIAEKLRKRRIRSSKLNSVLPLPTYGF
Text: as §1, §2, §3

[5] = target: Brachypodium distachyon BdDHS2, SEQ ID NO: 5, recombinant (Brachypodium distachyon, UniProt I1I809); assay: DHS activity: kinetics and effector inhibition; format: biochemical
Chain of Brachypodium distachyon BdDHS2, SEQ ID NO: 5, recombinant (I1I809 31-503): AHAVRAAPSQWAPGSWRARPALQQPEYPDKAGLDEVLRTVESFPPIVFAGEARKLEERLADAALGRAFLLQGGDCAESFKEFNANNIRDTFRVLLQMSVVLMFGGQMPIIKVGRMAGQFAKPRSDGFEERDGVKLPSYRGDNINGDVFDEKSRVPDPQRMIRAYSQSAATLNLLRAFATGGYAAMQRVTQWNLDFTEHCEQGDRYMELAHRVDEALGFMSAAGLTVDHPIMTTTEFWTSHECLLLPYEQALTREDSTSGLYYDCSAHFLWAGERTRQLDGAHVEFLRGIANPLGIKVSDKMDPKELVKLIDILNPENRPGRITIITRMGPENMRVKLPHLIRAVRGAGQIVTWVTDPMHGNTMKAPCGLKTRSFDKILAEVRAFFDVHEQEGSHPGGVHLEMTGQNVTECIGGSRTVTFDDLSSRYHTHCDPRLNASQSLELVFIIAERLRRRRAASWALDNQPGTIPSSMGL
Text: as §1, §2, §3

[6] = system: Nicotiana benthamiana leaves; assay: Transient expression of DHS1b orthologs in Nicotiana benthamiana leaves, LCMS (FIG. 21); format: in vivo; conditions: 72 hours post-infiltration; for effect on levels of aromatic amino acids and their precursor molecules: vs YPet
Text: To determine whether the grass DHS1b gene encodes a deregulated DHS in other grass species besides Brachypodium distachyon, BdDHS1b orthologs from Oryza sativa (OsDHS1b) and Sorghum bicolor (SbDHS1b) were cloned into the Golden Gate plant expression vector pICH47822 under control of the RuBisCO small subunit 3B promoter from Arabidopsis thaliana.^52 A 3× human influenza hemagglutinin tag was fused in frame to the C-terminus of the DHS genes to confirm the production of heterologous DHS protein.
Agrobacterium tumefaciens (strain GV3101) clones transformed with the OsDHS1b and SbDHS1b plant expression constructs were infiltrated into the leaves of Nicotiana benthamiana side-by-side with Agrobacterium clones expressing BdDHS1a, BdDHS1b, and the fluorescent protein YPet (negative control). The levels of phenylalanine, tyrosine, tryptophan, and three of their biosynthetic intermediates (shikimate, prephenate, and arogenate) were determined at 72 hours post-infiltration by liquid chromatography coupled to mass spectrometry (LCMS). […] On average, expression of BdDHS1b or OsDHS1b increased phenylalanine, tyrosine, and shikimate levels by 5 to 20-times compared to the YPet negative control (FIG. 21), whereas prephenate and arogenate rose to ˜100-times the control (FIG. 21). […] Based on these findings, BdDHS1b and OsDHS1b, but not SbDHS1b, encode DHS enzymes that can boost the accumulation of aromatic amino acids in planta upon heterologous expression.

[7] = DHS inhibition by arogenate; format: biochemical; conditions: FIG. 18
Description: as §3

[8] = DHS inhibition by tryptophan; format: biochemical; conditions: FIG. 18
Description: as §3

grass DHS enzymes = assay: DHS activity: effector inhibition; format: biochemical; conditions: 0.5 mM (FIGS. 4, 15, 17)
Description: as §2, §3

[9] = system: recombinant Sorghum DHS enzymes; assay: DHS activity: effector inhibition; format: biochemical, Sorghum bicolor; conditions: 0.5 mM (FIG. 17)
Description: (§4) In contrast, BdDHS1b was not inhibited by arogenate even up to 2.5 mM. In fact, DHS1b activity increased in the presence of high concentrations of arogenate (FIG. 4F), likely due to high concentrations of contaminant NaCl present in the arogenate preparation (FIG. 16). Under acidic conditions, arogenate is known to undergo a spontaneous dehydration and decarboxylation into […]. […] Like in Brachypodium DHS enzymes, 0.5 mM arogenate inhibited SbDHS1a and SbDHS2 at ˜50% and ˜40%, respectively, but had no effect on SbDHS1b.

[10] = target: T1, Sorghum bicolor SbDHSnc, SEQ ID NO: 15, recombinant (Sorghum bicolor, UniProt C5WRG8); assay: DHS activity: effector inhibition; format: biochemical; conditions: effector 0.5 mM
T1 construct: synthesized into pET28a, E. coli KRX
T1 sequence (C5WRG8 36-499): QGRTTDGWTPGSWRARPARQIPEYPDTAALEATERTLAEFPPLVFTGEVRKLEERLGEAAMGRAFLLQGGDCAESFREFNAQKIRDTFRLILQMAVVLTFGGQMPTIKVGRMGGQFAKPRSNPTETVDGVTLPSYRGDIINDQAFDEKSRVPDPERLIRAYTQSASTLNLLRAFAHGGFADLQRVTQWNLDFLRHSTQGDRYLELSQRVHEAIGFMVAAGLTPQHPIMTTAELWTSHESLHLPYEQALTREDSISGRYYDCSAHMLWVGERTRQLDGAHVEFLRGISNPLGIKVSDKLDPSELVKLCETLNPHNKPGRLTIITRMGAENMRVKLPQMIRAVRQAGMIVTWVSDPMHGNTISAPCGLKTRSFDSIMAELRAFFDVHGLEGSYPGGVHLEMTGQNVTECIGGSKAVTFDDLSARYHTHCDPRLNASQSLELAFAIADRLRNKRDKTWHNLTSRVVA
Description: as §4

[11] = target: T2, Sorghum bicolor SbDHS2, SEQ ID NO: 13, recombinant (Sorghum bicolor, UniProt C5YJQ4); assay: DHS activity: effector inhibition; format: biochemical; conditions: effector 0.5 mM
T2 construct: pET28a (NdeI/BamHI), E. coli KRX
T2 sequence (C5YJQ4 42-508): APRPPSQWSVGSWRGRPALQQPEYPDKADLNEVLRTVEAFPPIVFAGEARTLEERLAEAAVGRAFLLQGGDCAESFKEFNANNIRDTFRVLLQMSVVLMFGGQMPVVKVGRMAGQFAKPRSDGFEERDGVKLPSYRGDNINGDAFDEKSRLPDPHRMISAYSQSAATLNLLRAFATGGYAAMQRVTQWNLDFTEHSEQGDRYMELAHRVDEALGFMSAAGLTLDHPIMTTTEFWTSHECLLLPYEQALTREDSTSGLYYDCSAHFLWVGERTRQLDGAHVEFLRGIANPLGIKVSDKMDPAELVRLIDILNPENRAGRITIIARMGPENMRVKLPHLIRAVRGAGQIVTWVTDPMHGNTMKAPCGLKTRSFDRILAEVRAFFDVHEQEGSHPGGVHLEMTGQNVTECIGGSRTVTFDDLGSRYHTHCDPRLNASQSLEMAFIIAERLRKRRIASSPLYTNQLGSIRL
Description: as §4

BdDHS1a: DHS1a enzyme of Brachypodium distachyon, SEQ ID NO: 1
impact of effector combinations on DHS activity [1]: additional inhibition | phenylalanine accumulation compared to tdTomato control [2]: did not significantly alter | shikimate accumulation compared to tdTomato control [2]: did not significantly alter | tryptophan accumulation compared to tdTomato control [2]: did not significantly alter | tyrosine accumulation compared to tdTomato control [2]: did not significantly alter

O=C[C@H](O)[C@H](O)COP(=O)(O)O [E4P, erythrose 4-phosphate]
H Coefficient (only E4P) ([3]; 1.5 mM PEP): 1.8 | kcat/EC50 (E4P) [4]: 28300 M⁻¹ s⁻¹ | H Coefficient (only E4P) ([4]; 1.5 mM PEP): 2.1 | Km ([4]; 1.5 mM PEP, 37° C., read-out: EC50 (E4P) (K0.5)): 400 µM | H Coefficient (only E4P) ([5]; 1.5 mM PEP): 1.5

SbDHS1b: DHS1b enzyme of Sorghum bicolor, SEQ ID NO: 11
effect on levels of aromatic amino acids and their precursor molecules [6]: little or no significant effect

BdDHS2: DHS2 enzyme of Brachypodium distachyon, SEQ ID NO: 5
inhibition mechanism of arogenate for PEP [7]: mixed inhibition | inhibition mechanism of arogenate in respect to E4P [7]: uncompetitive inhibition | impact of effector combinations on DHS activity [1]: additional inhibition | phenylalanine accumulation compared to tdTomato control [2]: did not significantly alter | shikimate accumulation compared to tdTomato control [2]: did not significantly alter | tryptophan accumulation compared to tdTomato control [2]: did not significantly alter | tyrosine accumulation compared to tdTomato control [2]: did not significantly alter | inhibition mechanism of tryptophan in respect to E4P [8]: uncompetitive inhibition

N[C@@H](Cc1ccccc1)C(=O)O [phenylalanine]
effect on grass DHS at 0.5 mM (grass DHS enzymes): did not cause significant effects | inhibition at 0.5 mM [9]: no strong inhibition

C=C(O[C@@H]1C=C(C(=O)O)C=C[C@H]1O)C(=O)O [chorismate]
effect on grass DHS at 0.5 mM (grass DHS enzymes): little effect

OsDHS1b: DHS1b enzyme of Oryza sativa, SEQ ID NO: 19
prephenate and arogenate relative to the control [6]: ~100 times | effect on levels of aromatic amino acids and their precursor molecules [6]: increased levels of all measured metabolites except for tryptophan

O=C(O)Cc1cc(O)ccc1O [homogentisic acid]
effect on grass DHS at 0.5 mM (grass DHS enzymes): little effect

N[C@@H](Cc1c[nH]c2ccccc12)C(=O)O [tryptophan]
inhibition at 500 µM [10]: 40 to 50% | inhibition at 500 µM [11]: 40 to 50% | effect of tryptophan ([3]; 0.5 mM (FIG. 4C)): no effect | pIC50 ([3]; IC50 (tryptophan), 1.5 mM PEP, 2 mM E4P): < 3.30 | effect of tryptophan ([4]; 0.5 mM (FIG. 4C)): no effect | pIC50 ([4]; read-out: IC50 (tryptophan)): < 3.30 | pIC50 ([5]; 1.5 mM PEP, 2 mM E4P, read-out: IC50 (tryptophan)): 3.92 | mode of inhibition with respect to E4P ([5]; FIG. 18): uncompetitive inhibition kinetics | mode of inhibition with respect to PEP ([5]; FIG. 18): non-competitive inhibition

O=C(O)/C=C/c1ccc(O)c(O)c1 [caffeic acid]
effect on grass DHS at 0.5 mM (grass DHS enzymes): little effect
